Source: US9751919B2, “Antimicrobial compositions comprising a hyaluronic acid binding peptide and a β-lactam antibiotic” (priority 2012, dated 2017)
Values joined by “and” are separate entries in the source; they are usually repeats but may differ in a detail not shown here. Equal values may be shown once. Marks after values point to notes of the source that are not given here.

Tests used:
E. Faecium = test: Checkerboard assay (FIC index); assay type: cell-based, Enterococcus faecium; conditions: antibiotic combined with PEP35
Description: (§1) The checkerboard assays were carried out as described by Eliopoulos and Moellering (Chapter 9) in Antibiotic in Laboratory Medicine, Lorian Ed. 1996 as well as Bonapace et al. Diagnostic Microbiology and Infectious Diseases 2002; 44:363-366 and Bonapace et al. Diagnostic Microbiology and Infectious Diseases 2000; 38:43-50. In brief, checkerboard assays were performed in 96 well microtitre trays using an 8-by-8 well configuration. […] 96-well custom designed microtitre plates contained 100 ul/well of cation adjusted Mueller-Hinton broth (eg. for Enterobacteriaceae) with or without lysed horse blood (2-5% V/V) [eg. for S. pneumoniae] and were inoculated to achieve a final concentration of approximately 5×10^5 CFU/ml and incubated in ambient air for 24 hours prior to reading. Colony counts were performed periodically to confirm inocula. Quality control was performed every two weeks using a variety of ATCC QC organisms including; S. pneumoniae 49619, S. aureus 29213, E. faecalis 29212, E. coli 25922 and P. aeruginosa 27853. For all antimicrobials as well as PEP35, CLSI criteria was used.
(§2) The fractional inhibitory concentration index (FIC index) was used to interpret synergy, antagonism or additivity/indifference. FIC index=FIC of drug A+FIC of drug B where:
(§3) The FIC of drug A and drug B is calculated as follows, FIC drug A=MIC of drug A in combination/MIC of drug A alone and FIC of drug B=MIC of drug B in combination/MIC of drug B alone. Synergy is defined as FIC index ≦0.5, additivity/indifference FIC >0.5-4 and antagonism FIC index >4.
(§4) Antimicrobials used included PEP35, cefazolin, ceftriaxone, vancomycin, linezolid, tigecycline and daptomycin versus Gram-positive cocci and PEP35, gentamicin, levofloxacin, piperacillin/tazobactam, meropenem and colistin (Polymyxin E) versus Gram-negative bacilli. These agents were obtained as laboratory grade powders from their respective manufacturers. Stock solutions were prepared and dilutions made as described by the Clinical Laboratory Standards Institute (2005 CLSI).
Organisms included Gram-positive cocci (2 strains of each): Methicillin-susceptible Staphylococcus aureus (MSSA), community-associated (CA) and healthcare-associated (HA) methicillin-resistant Staphylococcus aureus (MRSA), vancomycin-intermediate Staphylococcus aureus (VISA), vancomycin-resistant Staphylococcus aureus (VRSA), methicillin-resistant Staphylococcus epidermidis (MRSE), Streptococcus pyogenes, Streptococcus agalactiae, Streptococcus pneumoniae, Enterococcus faecalis, Enterococcus faecium and vancomycin-resistant enterococcus (VRE). Gram-negative bacilli tested (2 strains of each) included: E. coli, Pseudomonas aeruginosa, Klebsiella pneumoniae, K. oxytoca, Enterobacter cloacae, P. mirabilis and Stenotrophomonas maltophilia. MIC testing, following two subcultures from frozen stock were determined by the CLSI 2005 approved broth microdilution method.

E. coli = test: Checkerboard assay (FIC index); assay type: cell-based, Escherichia coli; conditions: for synergy (in words): with β-lactams, against E. coli
Description: Checkerboard assays were carried out as described by Bonapace et al.
as §1, with “Diagnostic” for “The checkerboard assays were carried out as described by Eliopoulos and Moellering (Chapter 9) in Antibiotic in Laboratory Medicine, Lorian Ed. 1996 as well as Bonapace et al. Diagnostic”, “2002; 44:363-366.” for “2002; 44:363-366 and Bonapace et al. Diagnostic Microbiology and Infectious Diseases 2000; 38:43-50.”, “27853. […] All peptides were assessed for synergy with β-lactams and vancomycin.” for “27853.”, “as the peptides,” for “as PEP35,”, “criteria were” for “criteria was”
as §2
as §3, with “was” for “is”, “additivity/indifference defined as a” for “additivity/indifference”, “between 0.5 and 4” for “>0.5-4”, “antagonism defined as an” for “antagonism”
as §1, §3, §4
Organisms included Gram-positive cocci (2 strains of each): Methicillin-susceptible Staphylococcus aureus (MSSA), community-associated (CA) and healthcare-associated (HA) methicillin-resistant Staphylococcus aureus (MRSA), vancomycin-intermediate Staphylococcus aureus (VISA), vancomycin-resistant Staphylococcus aureus (VRSA), methicillin-resistant Staphylococcus epidermidis (MRSE), Streptococcus pyogenes, Streptococcus agalactiae, Streptococcus pneumoniae, Enterococcus faecalis, Enterococcus faecium and vancomycin-resistant enterococcus (VRE). […]

CA-MRSA = test: MIC (CLSI broth dilution), agent alone; assay type: cell-based, Staphylococcus aureus; conditions: agent alone
Description: (§5) VISA (strains 92, 95 and 96), VRSA (strains 105 and 106) and E. coli (strain 69717) isolates were also tested. One MSSA was used as a control. All MICs were assessed using CLSI guidelines. Also assessed was the activity of cefazolin, ceftriazone, meropenem, and a piperacillin/tazobactam combination antibiotic. Minimum inhibitory concentration (MIC) is the lowest concentration of an antimicrobial that will inhibit the visible growth of a microorganism after incubation.
(§6) Antimicrobial Susceptibility Testing: A custom designed panel of antimicrobials was created. […] These agents were obtained as laboratory grade powders from their respective manufacturers. Stock solutions were prepared and dilutions made as described by the Clinical Laboratory Standards Institute (2005 CLSI). Following two subcultures from frozen stock the MICs of the antimicrobial agents for the isolates were determined by the CLSI 2005 approved broth macrodilution method. Briefly, test tubes containing doubling antibiotic dilutions (2 ml per tube) of cation adjusted Mueller-Hinton broth (eg. for Enterobacteriaceae) with or without lysed horse blood (2-5% V/V) [eg. for S. pneumoniae] were inoculated to achieve a final concentration of approximately 5×10^5 CFU/ml and incubated in ambient air for 24 hours prior to reading. Colony counts were performed periodically to confirm inocula. Quality control was performed every two weeks using a variety of ATCC QC organisms including; S. aureus 29213, E. faecalis 29212, E. coli 25922 and P. aeruginosa 27853.
(§7) One MSSA was used as a control. All MICs were assessed using CLSI guidelines.
(§8) One MS SA and ATCC reference strains were used as controls. All MICs were assessed using CLSI guidelines.

HA-MRSA = test: MIC (CLSI broth dilution), agent alone; assay type: cell-based, Staphylococcus aureus; conditions: for MIC: agent alone; for PEP35 (MIC): peptide alone
Description: as §5, §6, §7, §8

MSSA = test: MIC (CLSI broth dilution), agent alone; assay type: cell-based, Staphylococcus aureus; conditions: for MIC: agent alone
Description: as §5, §6, §7, §8

[1] = antibiotic combined with PEP35, E. coli 70752
[2] = β-lactam combined with HybPEP35-1, E. coli 69716
[3] = β-lactam combined with PEP-52, E. coli 69716
[4] = β-lactam combined with Scrambled PEP35, E. coli 69716
[5] = HA-MRSA 70798 (USA100/800), in µg/mL
[6] = CA-MRSA 69615 (USA400), in µg/mL
[7] = CA-MRSA 70857 (USA400), in µg/mL
[8] = HA-MRSA 77090 (USA100/800), in µg/mL

**Q.** For `CCCCCCCCCC(=O)N[C@@H](Cc1c[nH]c2ccccc12)C(=O)N[C@H](CC(N)=O)C(=O)N[C@@H](CC(=O)O)C(=O)N[C@@H]1C(=O)NCC(=O)N[C@@H](CCCN)C(=O)N[C@@H](CC(=O)O)C(=O)N[C@H](C)C(=O)N[C@@H](CC(=O)O)C(=O)NCC(=O)N[C@H](CO)C(=O)N[C@@H]([C@H](C)CC(=O)O)C(=O)N[C@@H](CC(=O)c2ccccc2N)C(=O)O[C@@H]1C` [Daptomycin, daptomycin], which “Avg ΣFIC (range)” value (E. Faecium; E. Faecium 78024) is on record?
**A.** 1.19 (1.03-1.5)

**Q.** And the “Avg ΣFIC (range)” value (E. Faecium; E. Faecium 78352)?
**A.** 1.10 (0.75-1.5)

**Q.** How did the “Avg ΣFIC (range)” value (E. Faecium; E. Faecium 78024) turn out when `CC(=O)NC[C@H]1CN(c2ccc(N3CCOCC3)c(F)c2)C(=O)O1` [Linezolid, linezolid] was run?
**A.** 1.1 (1-1.25)

**Q.** What about the “Avg ΣFIC (range)” value (E. Faecium; E. Faecium 78352) of the same compound?
**A.** 0.80 (0.5-1.06)

**Q.** With `C[C@@H](O)[C@H]1C(=O)N2C(C(=O)O)=C(S[C@@H]3CN[C@H](C(=O)N(C)C)C3)[C@H](C)[C@H]12` [Meropenem] as the compound, how does the “Avg ΣFIC (range)” value (E. coli; [1]) read?
**A.** 1.21 (1.03-1.5)

**Q.** And the “Avg ΣFIC (range)” value (E. coli; [2])?
**A.** 1.21

**Q.** And the “Avg ΣFIC (range)” value (E. coli; [3])?
**A.** >1*

**Q.** And the “Avg ΣFIC (range)” value (E. coli; [4])?
**A.** 1.21

**Q.** And the MIC (CA-MRSA; CA-MRSA 70857 (USA400))?
**A.** 2 and 4/4

**Q.** And the MIC (HA-MRSA; [5])?
**A.** 64

**Q.** What about the MIC (HA-MRSA; HA-MRSA 77098 (USA100/800)) of the same compound?
**A.** 64/64

**Q.** What does the source list for `CN(C)c1cc(NC(=O)CNC(C)(C)C)c(O)c2c1C[C@H]1C[C@H]3[C@H](N(C)C)C(O)=C(C(N)=O)C(=O)[C@@]3(O)C(O)=C1C2=O` [Tigecycline, tigecycline]?
**A.** Avg ΣFIC (range) (E. Faecium; E. Faecium 78024): 1.19 (1.03-1.5); Avg ΣFIC (range) (E. Faecium; E. Faecium 78352): 0.99 (0.75-1.12)

**Q.** What does the source list for `CN[C@H](CC(C)C)C(=O)N[C@H]1C(=O)N[C@@H](CC(N)=O)C(=O)N[C@H]2C(=O)N[C@H]3C(=O)N[C@H](C(=O)N[C@H](C(=O)O)c4cc(O)cc(O)c4-c4cc3ccc4O)[C@H](O)c3ccc(c(Cl)c3)Oc3cc2cc(c3O[C@@H]2O[C@H](CO)[C@@H](O)[C@H](O)[C@H]2O[C@H]2C[C@](C)(N)[C@H](O)[C@H](C)O2)Oc2ccc(cc2Cl)[C@H]1O` [Vancomycin]?
**A.** Avg ΣFIC (range) (E. Faecium; E. Faecium 78024): 1.19 (1.03-1.5); Avg ΣFIC (range) (E. Faecium; E. Faecium 78352): 1.59 (1.06-2.5); MIC (CA-MRSA; CA-MRSA 69615 (USA400)): 1/1; MIC (HA-MRSA; HA-MRSA 77090 (USA100/800)): 1/1; MIC (MSSA; MSSA 79333): 1 and 0.5

**Q.** How did the “synergy (in words)” value (E. coli) turn out when “KKKKKLQLQLNLIKKKVQVSVVVVRRH (Reordered human peptide sequence) [Scrambled PEP35]” was run?
**A.** not synergistic (except at low level with ceftriaxone)

**Q.** And the MIC (CA-MRSA; [6])?
**A.** 256

**Q.** What about the MIC (CA-MRSA; [7]) of the same compound?
**A.** 256

**Q.** And the MIC (HA-MRSA; [5])?
**A.** 256

**Q.** What about the MIC (HA-MRSA; [8]) of the same compound?
**A.** 512

**Q.** And the MIC (MSSA; MSSA 79333, in µg/mL)?
**A.** 64

**Q.** How did the “synergy (in words)” value (E. coli) turn out when “LKQKIKHVVKLKVVVKLRSQLVKRKQN (listed as Mus sp.) [PEP35]” was run?
**A.** not synergistic

**Q.** And the MIC (CA-MRSA; [6])?
**A.** 512

**Q.** What about the MIC (CA-MRSA; CA-MRSA (CMRSA7/USA400/MW2) isolates, one per table line) of the same compound?
**A.** 512 µg/mL

**Q.** What about the MIC (HA-MRSA; [5]) of the same compound?
**A.** 512

**Q.** And the MIC (HA-MRSA; [8])?
**A.** 256 and 512

**Q.** And the “PEP35 (MIC)” value (HA-MRSA; HA-MRSA (CMRSA1/USA600))?
**A.** 256 µg/mL

**Q.** What about the “PEP35 (MIC)” value (HA-MRSA; HA-MRSA (CMRSA5/USA500)) of the same compound?
**A.** 512 µg/mL

**Q.** And the “PEP35 (MIC)” value (HA-MRSA; HA-MRSA (CMRSA8))?
**A.** 1024 µg/mL

**Q.** And the MIC (MSSA; MSSA 79333, in µg/mL)?
**A.** 128 and 256

**Q.** And the “PEP35 (MIC)” value (MSSA; S. aureus (printed without strain; control row), peptide alone)?
**A.** 1024 µg/mL

**Q.** What about the MIC (MSSA; S. aureus control) of the same compound?
**A.** 512 µg/mL

**Q.** What does the source list for piperacillin/tazobactam?
**A.** Avg ΣFIC (range) (E. coli; antibiotic combined with PEP35, E. coli 69716): 0.87 (0.56-1.12) and 0.63 (0.5-1.03); Avg ΣFIC (range) (E. coli; [1]): 0.98 (0.62-1.25) and 0.63 (0.24-1.03); Avg ΣFIC (range) (E. coli; [2]): 0.59; Avg ΣFIC (range) (E. coli; β-lactam combined with HybPEP35-1, E. coli 70752): 0.67; Avg ΣFIC (range) (E. coli; [3]): >1*; Avg ΣFIC (range) (E. coli; β-lactam combined with PEP-52, E. coli 70752): >1*; Avg ΣFIC (range) (E. coli; [4]): 0.59; Avg ΣFIC (range) (E. coli; β-lactam combined with Scrambled PEP35, E. coli 70752): 0.67; MIC (CA-MRSA; [6]): 32; MIC (CA-MRSA; [7]): 32; MIC (HA-MRSA; [5]): 4; MIC (HA-MRSA; [8]): 16; MIC (MSSA; MSSA 79333): ≦1
